Data on six compounds can be found in ChEMBL document CHEMBL3616450, “Synthesis of oxygenated oleanolic and ursolic acid derivatives with anti-inflammatory properties” (Bioorg Med Chem Lett, 2015).

The source made the active and inactive calls. The calls are words filed in the database; no cut-off is given here.

The first test deals with Mus musculus. Briefly: Antiinflammatory activity in […] mouse assessed as inhibition of TPA-induced IL-1alpha mRNA expression in epidermis at 2 umol administered topically 30 mins prior to TPA challenge for twice weekly over 2 weeks measured 6 hrs post last TPA challenge by qRT-PCR analysis. It is filed as functional, organism-based. (In general: Quantitative PCR measures a nucleic acid by following its amplification.)
As to `C[C@H]1[C@H](C)CC[C@]2(C(=O)O)CC[C@]3(C)C(=CC[C@@H]4[C@@]5(C)CC[C@H](O)C(C)(C)[C@@H]5CC[C@]43C)[C@H]12`, the inhibition result is “inactive”.
`CC1(C)CC[C@]2(C(=O)O)CC[C@]3(C)C(=CC[C@@H]4[C@@]5(C)C[C@@H](O)[C@@H](O)C(C)(C)[C@@H]5CC[C@]43C)[C@@H]2C1`: the inhibition result is “inactive”.
On to `CC1(C)CC[C@]2(C(=O)O)CC[C@]3(C)C(=CC[C@@H]4[C@@]5(C)C[C@@H](O)[C@H](O)C(C)(C)[C@@H]5CC[C@]43C)[C@@H]2C1`, for which the inhibition entry was “Active”.
In the case of `C[C@H]1[C@H](C)CC[C@]2(C(=O)O)CC[C@]3(C)C(=CC[C@@H]4[C@@]5(C)C[C@@H](O)[C@H](O)C(C)(C)[C@@H]5CC[C@]43C)[C@H]12`, the inhibition entry was “Active”.
Turning to `C[C@H]1[C@H](C)CC[C@]2(C(=O)O)CC[C@]3(C)C(=CC[C@@H]4[C@@]5(C)C[C@@H](O)[C@@H](O)C(C)(C)[C@@H]5CC[C@]43C)[C@H]12`, the inhibition result is “Active”.
Consider `CC1(C)CC[C@]2(C(=O)O)CC[C@]3(C)C(=CC[C@@H]4[C@@]5(C)CC[C@H](O)C(C)(C)[C@@H]5CC[C@]43C)[C@@H]2C1`, for which the inhibition result was “inactive”.

The next test deals with Mus musculus. Briefly: Antiinflammatory activity in […] mouse assessed as inhibition of TPA-induced IL-1beta mRNA expression in epidermis at 2 umol administered topically 30 mins prior to TPA challenge for twice weekly over 2 weeks measured 6 hrs post last TPA challenge by qRT-PCR analysis. It is filed as functional, organism-based.
Turning to `C[C@H]1[C@H](C)CC[C@]2(C(=O)O)CC[C@]3(C)C(=CC[C@@H]4[C@@]5(C)CC[C@H](O)C(C)(C)[C@@H]5CC[C@]43C)[C@H]12`, the inhibition result is “inactive”.
For the compound `CC1(C)CC[C@]2(C(=O)O)CC[C@]3(C)C(=CC[C@@H]4[C@@]5(C)C[C@@H](O)[C@@H](O)C(C)(C)[C@@H]5CC[C@]43C)[C@@H]2C1`, the inhibition result was “inactive”.
With `CC1(C)CC[C@]2(C(=O)O)CC[C@]3(C)C(=CC[C@@H]4[C@@]5(C)C[C@@H](O)[C@H](O)C(C)(C)[C@@H]5CC[C@]43C)[C@@H]2C1`, the inhibition result was “Active”.
On the same count and under the same terms, with `C[C@H]1[C@H](C)CC[C@]2(C(=O)O)CC[C@]3(C)C(=CC[C@@H]4[C@@]5(C)C[C@@H](O)[C@H](O)C(C)(C)[C@@H]5CC[C@]43C)[C@H]12` the entry was “Active”; with `C[C@H]1[C@H](C)CC[C@]2(C(=O)O)CC[C@]3(C)C(=CC[C@@H]4[C@@]5(C)C[C@@H](O)[C@@H](O)C(C)(C)[C@@H]5CC[C@]43C)[C@H]12`, “Active”; with `CC1(C)CC[C@]2(C(=O)O)CC[C@]3(C)C(=CC[C@@H]4[C@@]5(C)CC[C@H](O)C(C)(C)[C@@H]5CC[C@]43C)[C@@H]2C1`, “inactive”.

For a further test, the system named is Mus musculus. Briefly: Antiinflammatory activity in […] mouse assessed as inhibition of TPA-induced IL-6 mRNA expression in epidermis at 2 umol administered topically 30 mins prior to TPA challenge for twice weekly over 2 weeks measured 6 hrs post last TPA challenge by qRT-PCR analysis. In kind it is functional, organism-based.
In the case of `C[C@H]1[C@H](C)CC[C@]2(C(=O)O)CC[C@]3(C)C(=CC[C@@H]4[C@@]5(C)CC[C@H](O)C(C)(C)[C@@H]5CC[C@]43C)[C@H]12`, the inhibition entry was “inactive”.
In the case of `CC1(C)CC[C@]2(C(=O)O)CC[C@]3(C)C(=CC[C@@H]4[C@@]5(C)C[C@@H](O)[C@@H](O)C(C)(C)[C@@H]5CC[C@]43C)[C@@H]2C1`, the inhibition result is “inactive”.
Consider `CC1(C)CC[C@]2(C(=O)O)CC[C@]3(C)C(=CC[C@@H]4[C@@]5(C)C[C@@H](O)[C@H](O)C(C)(C)[C@@H]5CC[C@]43C)[C@@H]2C1`, for which the inhibition result was “Active”.
`C[C@H]1[C@H](C)CC[C@]2(C(=O)O)CC[C@]3(C)C(=CC[C@@H]4[C@@]5(C)C[C@@H](O)[C@H](O)C(C)(C)[C@@H]5CC[C@]43C)[C@H]12`: the inhibition result is “Active”.
As to `C[C@H]1[C@H](C)CC[C@]2(C(=O)O)CC[C@]3(C)C(=CC[C@@H]4[C@@]5(C)C[C@@H](O)[C@@H](O)C(C)(C)[C@@H]5CC[C@]43C)[C@H]12`, the inhibition entry was “Active”.
`CC1(C)CC[C@]2(C(=O)O)CC[C@]3(C)C(=CC[C@@H]4[C@@]5(C)CC[C@H](O)C(C)(C)[C@@H]5CC[C@]43C)[C@@H]2C1`: the inhibition result is “inactive”.

For the next test, the system named is Mus musculus. The test can be described thus: Antiinflammatory activity in […] mouse assessed as inhibition of TPA-induced IL-23 mRNA expression in epidermis at 2 umol administered topically 30 mins prior to TPA challenge for twice weekly over 2 weeks measured 6 hrs post last TPA challenge by qRT-PCR analysis. It is filed as functional, organism-based.
With `C[C@H]1[C@H](C)CC[C@]2(C(=O)O)CC[C@]3(C)C(=CC[C@@H]4[C@@]5(C)CC[C@H](O)C(C)(C)[C@@H]5CC[C@]43C)[C@H]12`, the inhibition entry is “inactive”.
As to `CC1(C)CC[C@]2(C(=O)O)CC[C@]3(C)C(=CC[C@@H]4[C@@]5(C)C[C@@H](O)[C@@H](O)C(C)(C)[C@@H]5CC[C@]43C)[C@@H]2C1`, the inhibition entry was “inactive”.
Same read-out and setting: with `CC1(C)CC[C@]2(C(=O)O)CC[C@]3(C)C(=CC[C@@H]4[C@@]5(C)C[C@@H](O)[C@H](O)C(C)(C)[C@@H]5CC[C@]43C)[C@@H]2C1` the entry was “Active”; with `C[C@H]1[C@H](C)CC[C@]2(C(=O)O)CC[C@]3(C)C(=CC[C@@H]4[C@@]5(C)C[C@@H](O)[C@H](O)C(C)(C)[C@@H]5CC[C@]43C)[C@H]12`, “Active”; with `C[C@H]1[C@H](C)CC[C@]2(C(=O)O)CC[C@]3(C)C(=CC[C@@H]4[C@@]5(C)C[C@@H](O)[C@@H](O)C(C)(C)[C@@H]5CC[C@]43C)[C@H]12`, “Active”.
`CC1(C)CC[C@]2(C(=O)O)CC[C@]3(C)C(=CC[C@@H]4[C@@]5(C)CC[C@H](O)C(C)(C)[C@@H]5CC[C@]43C)[C@@H]2C1`: the inhibition entry was “inactive”.
